Like-named read-outs stand apart in the source and are kept apart here.
Legend:
[1] = target: T1, dLManII (Drosophila melanogaster lysosomal α-mannosidase II) (Drosophila melanogaster, UniProt Q9VKV1); assay: Class II α-mannosidase inhibition assay; type: biochemical
T1 sequence (Q9VKV1 25-1080): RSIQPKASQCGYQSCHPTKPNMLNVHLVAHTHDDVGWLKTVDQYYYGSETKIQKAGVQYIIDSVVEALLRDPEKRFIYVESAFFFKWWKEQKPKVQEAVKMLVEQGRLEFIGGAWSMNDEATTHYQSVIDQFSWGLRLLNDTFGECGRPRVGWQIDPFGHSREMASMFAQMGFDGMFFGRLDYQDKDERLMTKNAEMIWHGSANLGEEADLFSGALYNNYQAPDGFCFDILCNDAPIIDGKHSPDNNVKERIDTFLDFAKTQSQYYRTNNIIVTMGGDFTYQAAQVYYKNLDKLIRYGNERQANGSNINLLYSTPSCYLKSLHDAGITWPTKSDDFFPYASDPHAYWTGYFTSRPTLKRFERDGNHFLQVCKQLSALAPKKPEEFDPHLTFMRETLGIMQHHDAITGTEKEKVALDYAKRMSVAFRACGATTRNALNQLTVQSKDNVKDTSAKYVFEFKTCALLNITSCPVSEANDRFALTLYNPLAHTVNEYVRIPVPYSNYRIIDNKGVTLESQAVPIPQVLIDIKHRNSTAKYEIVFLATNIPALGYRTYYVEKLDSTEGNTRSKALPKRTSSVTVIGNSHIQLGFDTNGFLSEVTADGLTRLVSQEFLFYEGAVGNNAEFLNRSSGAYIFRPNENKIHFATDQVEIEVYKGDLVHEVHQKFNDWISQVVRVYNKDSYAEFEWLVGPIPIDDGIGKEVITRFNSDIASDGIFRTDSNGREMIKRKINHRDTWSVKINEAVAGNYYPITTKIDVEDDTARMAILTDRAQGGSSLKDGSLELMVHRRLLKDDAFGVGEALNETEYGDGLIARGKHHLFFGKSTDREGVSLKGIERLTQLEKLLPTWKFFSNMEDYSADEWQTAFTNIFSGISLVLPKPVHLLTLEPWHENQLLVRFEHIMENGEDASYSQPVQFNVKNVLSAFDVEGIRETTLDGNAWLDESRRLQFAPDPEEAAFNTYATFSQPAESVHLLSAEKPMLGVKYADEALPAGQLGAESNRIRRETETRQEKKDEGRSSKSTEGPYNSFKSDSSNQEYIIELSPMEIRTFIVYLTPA

[2] = target: T2, dGMIIb (Drosophila melanogaster Co(II)-activated Golgi α-mannosidase IIb) (Drosophila melanogaster, UniProt Q9VF33); assay: Class II α-mannosidase inhibition assay; type: biochemical
T2 sequence (Q9VF33 31-1249): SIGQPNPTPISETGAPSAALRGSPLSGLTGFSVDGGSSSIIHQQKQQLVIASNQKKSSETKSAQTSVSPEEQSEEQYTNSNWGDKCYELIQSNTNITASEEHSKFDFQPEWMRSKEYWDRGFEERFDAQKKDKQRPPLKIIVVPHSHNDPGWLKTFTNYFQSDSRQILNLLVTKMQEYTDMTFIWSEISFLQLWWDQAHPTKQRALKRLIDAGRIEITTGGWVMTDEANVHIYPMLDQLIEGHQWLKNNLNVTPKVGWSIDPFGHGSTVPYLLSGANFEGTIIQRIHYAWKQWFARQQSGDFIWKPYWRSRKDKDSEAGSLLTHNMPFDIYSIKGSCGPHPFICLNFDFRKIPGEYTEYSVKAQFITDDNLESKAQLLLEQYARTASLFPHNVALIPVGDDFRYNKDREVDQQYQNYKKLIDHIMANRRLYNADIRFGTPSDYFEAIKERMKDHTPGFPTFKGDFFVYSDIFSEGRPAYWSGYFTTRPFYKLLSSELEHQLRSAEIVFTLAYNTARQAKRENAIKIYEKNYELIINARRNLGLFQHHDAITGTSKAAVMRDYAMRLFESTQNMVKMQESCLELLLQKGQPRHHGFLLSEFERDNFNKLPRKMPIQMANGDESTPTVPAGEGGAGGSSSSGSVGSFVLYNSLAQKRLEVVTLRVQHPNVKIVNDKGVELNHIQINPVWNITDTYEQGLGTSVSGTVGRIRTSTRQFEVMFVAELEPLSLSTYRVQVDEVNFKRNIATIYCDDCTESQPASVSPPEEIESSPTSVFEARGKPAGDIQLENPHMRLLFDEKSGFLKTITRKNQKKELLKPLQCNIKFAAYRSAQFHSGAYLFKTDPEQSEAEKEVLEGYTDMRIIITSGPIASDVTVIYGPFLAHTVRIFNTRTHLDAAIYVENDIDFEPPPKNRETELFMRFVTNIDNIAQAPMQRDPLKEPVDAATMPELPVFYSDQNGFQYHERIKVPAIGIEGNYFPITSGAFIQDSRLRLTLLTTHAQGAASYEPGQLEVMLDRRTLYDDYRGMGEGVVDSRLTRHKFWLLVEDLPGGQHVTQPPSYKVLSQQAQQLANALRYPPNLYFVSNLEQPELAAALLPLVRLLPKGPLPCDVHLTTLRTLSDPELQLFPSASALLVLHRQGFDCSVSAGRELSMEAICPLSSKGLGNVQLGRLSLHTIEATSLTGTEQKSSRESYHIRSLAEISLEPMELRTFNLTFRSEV

[3] = target: T3, Aspergillus saitoi α1,2-mannosidase (AspMan) (Aspergillus phoenicis, UniProt Q12563); type: biochemical
T3 sequence (Q12563 22-513): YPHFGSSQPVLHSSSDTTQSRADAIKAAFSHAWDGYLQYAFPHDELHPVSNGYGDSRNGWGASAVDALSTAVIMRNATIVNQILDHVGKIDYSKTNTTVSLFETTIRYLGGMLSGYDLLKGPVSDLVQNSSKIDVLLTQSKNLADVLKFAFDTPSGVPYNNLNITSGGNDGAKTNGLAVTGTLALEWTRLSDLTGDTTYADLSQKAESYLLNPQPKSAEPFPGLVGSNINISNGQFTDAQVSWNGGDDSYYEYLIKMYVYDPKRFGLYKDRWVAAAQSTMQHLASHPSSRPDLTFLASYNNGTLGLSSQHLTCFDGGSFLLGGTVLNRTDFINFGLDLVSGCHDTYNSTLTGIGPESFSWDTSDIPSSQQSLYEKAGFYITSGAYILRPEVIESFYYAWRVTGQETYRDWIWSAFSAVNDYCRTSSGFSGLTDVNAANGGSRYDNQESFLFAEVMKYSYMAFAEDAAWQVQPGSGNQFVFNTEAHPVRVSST

[4] = target: T4, jack bean α-mannosidase (JBMan) (Canavalia ensiformis, UniProt C0HJB3); assay: Jack bean α-mannosidase inhibition assay; type: biochemical
T4 sequence (C0HJB3 1-981): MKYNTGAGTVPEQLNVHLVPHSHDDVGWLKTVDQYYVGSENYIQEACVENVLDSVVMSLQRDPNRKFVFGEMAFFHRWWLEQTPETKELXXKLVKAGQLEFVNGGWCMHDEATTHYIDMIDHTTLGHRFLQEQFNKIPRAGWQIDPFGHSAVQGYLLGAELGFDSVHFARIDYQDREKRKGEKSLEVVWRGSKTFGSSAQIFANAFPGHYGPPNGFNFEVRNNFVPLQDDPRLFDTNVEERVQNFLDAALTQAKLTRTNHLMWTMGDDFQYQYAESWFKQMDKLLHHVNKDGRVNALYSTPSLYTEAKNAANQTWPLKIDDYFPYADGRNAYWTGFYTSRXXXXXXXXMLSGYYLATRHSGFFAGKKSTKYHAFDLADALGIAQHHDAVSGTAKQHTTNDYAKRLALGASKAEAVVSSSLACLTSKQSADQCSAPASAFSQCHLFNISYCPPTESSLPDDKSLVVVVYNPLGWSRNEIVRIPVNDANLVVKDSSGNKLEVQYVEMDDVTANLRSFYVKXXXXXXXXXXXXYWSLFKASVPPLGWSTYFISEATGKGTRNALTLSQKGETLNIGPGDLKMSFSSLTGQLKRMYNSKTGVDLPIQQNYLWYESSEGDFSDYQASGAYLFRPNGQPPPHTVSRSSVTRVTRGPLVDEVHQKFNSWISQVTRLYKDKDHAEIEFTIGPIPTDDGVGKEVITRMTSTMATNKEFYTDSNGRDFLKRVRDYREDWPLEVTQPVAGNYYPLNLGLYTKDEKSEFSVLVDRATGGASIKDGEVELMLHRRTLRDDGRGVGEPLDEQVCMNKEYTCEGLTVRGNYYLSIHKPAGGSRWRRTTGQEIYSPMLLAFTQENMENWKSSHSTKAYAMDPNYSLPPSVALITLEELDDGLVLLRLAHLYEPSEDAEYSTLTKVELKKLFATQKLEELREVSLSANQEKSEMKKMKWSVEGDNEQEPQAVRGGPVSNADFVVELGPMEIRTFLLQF

[5] = target: T2, dGMIIb (Drosophila melanogaster Co(II)-activated Golgi α-mannosidase IIb); conditions: cited from earlier work
[6] = target: T4, jack bean α-mannosidase (JBMan); conditions: read-out: IC50 JBMan, cited from earlier work
[7] = target: dGMII (Drosophila melanogaster α-mannosidase II); conditions: read-out: Ki dGMII (printed in dGMIIb column); ref Shah et al.[41]; cited from earlier work

Compound	IC50 [1]	IC50 [2]	IC50 [3]	IC50 [4]	also measured
OC[C@H]1O[C@H](n2cc(-c3ccccc3)nn2)[C@@H](O)[C@@H](O)[C@@H]1O [Compound 6, 1-α-D-mannopyranosyl-4-phenyl-1,2,3-triazole]	5000 µM	5000 µM	50 µM	400 µM	selectivity ratio [IC50(GH38)/IC50(GH47)] ([3]; GH38 mannosidases vs GH47 AspMan): 100
OC[C@H]1O[C@H](n2cc(Cc3ccccc3)nn2)[C@@H](O)[C@@H](O)[C@@H]1O [Compound 7, 4-Benzyl-1-α-D-mannopyranosyl-1,2,3-triazole]	500 µM	5000 µM	100 µM	1100 µM	
OC[C@H]1O[C@H](n2cc(CCc3ccccc3)nn2)[C@@H](O)[C@@H](O)[C@@H]1O [Compound 8, 1-α-D-mannopyranosyl-4-(2-phenylethyl)-1,2,3-triazole]	5000 µM	6000 µM	250 µM	400 µM	
O=S(=O)(Cc1ccccc1)[C@H]1O[C@H](CO)[C@@H](O)[C@H](O)[C@@H]1O [Compound 9, benzyl α-D-mannopyranosyl sulfone]					IC50 ([5]; read-out: IC50 dGMIIb, ref Poláková et al.[30]): 2000 µM; selectivity GMII vs LM ([5]; ref [30]): selective towards GMII; IC50 ([4]; read-out: IC50 JBMan, pNP-Manp substrate, pH 4.5): 2000 µM
O=C1N[C@@H]2[C@@H](O)[C@@H](O)[C@H](O)[C@@H](CO)N2C1=O [Kifunensine]					IC50 ([6]; ref Kayakiri et al.[42]): 120 µM; Ki [7]: 5200 µM
CS[C@@H]1[C@@H](N)[C@@H](O)[C@@H](O)[C@H]1O [Mannostatin A, reference compound]	3 µM	0.15 µM			IC50 ([6]; ref Ogawa et al.[44]): 0.24 µM

From PMC4382718 (Carbohydrate research, 2015)
